Source: patent US8450357B2, “Compositions comprising an aryl pyrazole and/or a formamidine, methods and uses thereof” (Merial Limited, priority 2008, dated 2013)
Where two headings read alike, the source gives them in different places.

Tests used:
[1] = system: adult Rhipicephalus sanguineus ticks; experiment: whole plant or invertebrate
Protocol: Fipronil was dissolved in acetone containing 0.019% of a mixture of Triton 152 and Triton 172 (1:3, v/v) and 0.4% DMSO to achieve the desired concentration. Dosages were serially diluted using this same formulation. For treatments containing amitraz, amitraz was added to the above solution to achieve the desired concentration. 0.5 ml of the solution was used to treat 20 ml scintillation vials containing a 0.125″ hole in the cap. […] Filter papers treated with this same solution were placed in the cap and bottom of the treated vial. Vials were capped and held over night at 24° C. and 95% RH after which 10 adult Rhipicephalus sanguineus ticks were placed into each vial. The vials were held under the same conditions mentioned above for the duration of the test. […]

[2] = system: adult Rhipicephalus sanguineus; experiment: Tick motility petri dish assay with imaging system, amitraz and fipronil; format: in vivo; settings: for Geometric Mean of movement values for stimulated ticks: amitraz 0.32 ug/cm^2, fipronil serial dilutions 1.3-0.005 ug/cm^2; for motility of ticks over time: compound alone, compared to solvent control treated ticks
Excerpt: An imaging system was used for the automated analysis of tick motility in response to amitraz and fipronil treatments to remove the subjective interpretation of manual test evaluation. The study was designed to evaluate the affect of amitraz and fipronil alone and in combination, as compared to a control, on the motility of ticks over time.
The motility of adult Rhipicephalus sanguineus was compared for amitraz-only, fipronil-only and the combination of fipronil and amitraz in a petri dish assay using the imaging system. The assay was run using a fixed dilution of amitraz (0.32 ug/cm^2), with serial dilutions of fipronil (1.3, 0.33, 0.08, 0.02, or 0.005 ug/cm^2) alone and in combination with the fixed dilution of amitraz. Six independent replications were conducted.
A plate holding four petri dishes was custom made for the imaging system. At each time point the plate holding four petri dishes was placed on the imaging system and evaluated for motility. The set up of the plate for each evaluation is illustrated below in Table 21.
For Dish A1, a volume of 625 μL of ethanol was used to treat the tops and 625 μL to treat the bottoms of the petri dish. All solutions were formulated in 100% ethanol. For Dish A2, a volume of 125 μL of the 25 ppm amitraz solution was used to treat the tops and 125 μL to treat the bottoms of the petri dish. For Dish B1, the top and bottom portions of the petri dishes were each treated with 500 μL of the 25 ppm solution of fipronil (serially diluted for each Plate 1-5) and 125 μL of the 25 ppm solution of amitraz. And for Dish B2, each of the top and bottom portions of the petri dishes were treated with 500 μL of the 25 ppm solution of fipronil (serially diluted for each Plate 1-5). After application of the corresponding solution to the petri dishes, the petri dishes were left open under a fan and allowed to dry for 1 hour. After drying, the dishes were infested with 10 adult Rhipicephalus sanguineus (supplied by Ecto Services, Inc. Henderson, N.C.). The ticks were left undisturbed for 1 hour before evaluation in the imaging system. Between evaluations ticks were maintained at approximately 21° C. and 60% RH.
After the initial hour, each Plate 1-5 was sequentially placed into the imaging system for evaluation. Image processing calculates the change in movement of the ticks between each image. The value generated is equal to the movement in each petri dish during the image time. The ticks in each individual petri dish were then stimulated to move by breathing/exhaling into the plate. After stimulation, the plates were placed back into the imaging system for another evaluation to determine if the treatment affected the tick's ability to move. Image capture was repeated as in the pre-stimulated evaluation.
Evaluations were made at 1, 4, 18, and 24 hours post infest (hpi) for 3 trials. For 3 trials the 4 hour evaluation was not done and for 3 trials the third evaluation was done at 21 to 22 hours. Raw data values were exported from the imaging system and comparative analysis of treatments over time was conducted.

[3] = 4 h, read-out: 4 hour % Mortality Rep 1
[4] = 4 h, read-out: 4 hour % Mortality Rep 2
[5] = 4 h, read-out: 4 hour Avg. % Mortality
[6] = 24 h, read-out: 24 hour % Mortality Rep 1
[7] = 24 h, read-out: 24 hour % Mortality Rep 2
[8] = 24 h, read-out: 24 hour Avg. % Mortality
[9] = 48 h, read-out: 48 hour % Mortality Rep 1
[10] = 48 h, read-out: 48 hour % Mortality Rep 2
[11] = 48 h, read-out: 48 hour Avg. % Mortality

N#Cc1nn(-c2c(Cl)cc(C(F)(F)F)cc2Cl)c(N)c1[S+]([O-])C(F)(F)F (centres unmarked) [fipronil, 5-amino-3-cyano-1-(2,6-dichloro-4-trifluoromethylphenyl)-4-trifluoromethylsulfinylpyrazole]
mortality at 0.025 ppm [1, 3]: 0%
mortality at 0.1 ppm [1, 3]: 0%
mortality at 0.4 ppm [1, 3]: 0%
mortality at 1.6 ppm [1, 3]: 0%
mortality at 6.25 ppm [1, 3]: 10%
mortality at 25 ppm [1, 3]: 80%
mortality at 0.025 ppm [1, 4]: 0%
mortality at 0.1 ppm [1, 4]: 0%
mortality at 0.4 ppm [1, 4]: 0%
mortality at 1.6 ppm [1, 4]: 0%
mortality at 6.25 ppm [1, 4]: 20%
mortality at 25 ppm [1, 4]: 90%
mortality at 0.025 ppm [1, 5]: 0%
mortality at 0.1 ppm [1, 5]: 0%
mortality at 0.4 ppm [1, 5]: 0%
mortality at 1.6 ppm [1, 5]: 0%
mortality at 6.25 ppm [1, 5]: 15%
mortality at 25 ppm [1, 5]: 85%
mortality at 0.025 ppm [1, 6]: 0%
mortality at 0.1 ppm [1, 6]: 0%
mortality at 0.4 ppm [1, 6]: 0%
mortality at 6.25 ppm [1, 6]: 100%
mortality at 25 ppm [1, 6]: 100%
mortality at 0.025 ppm [1, 7]: 0%
mortality at 0.1 ppm [1, 7]: 0%
mortality at 0.4 ppm [1, 7]: 0%
mortality at 1.6 ppm [1, 7]: 30%
mortality at 6.25 ppm [1, 7]: 90%
mortality at 25 ppm [1, 7]: 100%
mortality at 0.025 ppm [1, 8]: 0%
mortality at 0.1 ppm [1, 8]: 0%
mortality at 0.4 ppm [1, 8]: 0%
mortality at 1.6 ppm [1, 8]: 50%
mortality at 6.25 ppm [1, 8]: 95%
mortality at 25 ppm [1, 8]: 100%
mortality at 0.025 ppm [1, 9]: 0%
mortality at 0.1 ppm [1, 9]: 0%
mortality at 0.4 ppm [1, 9]: 0%
mortality at 1.6 ppm [1, 9]: 100%
mortality at 6.25 ppm [1, 9]: 100%
mortality at 25 ppm [1, 9]: 100%
mortality at 0.025 ppm [1, 10]: 0%
mortality at 0.1 ppm [1, 10]: 0%
mortality at 0.4 ppm [1, 10]: 0%
mortality at 1.6 ppm [1, 10]: 70%
mortality at 6.25 ppm [1, 10]: 90%
mortality at 25 ppm [1, 10]: 100%
mortality at 0.025 ppm [1, 11]: 0%
mortality at 0.1 ppm [1, 11]: 0%
mortality at 0.4 ppm [1, 11]: 0%
mortality at 1.6 ppm [1, 11]: 85%
mortality at 6.25 ppm [1, 11]: 95%
mortality at 25 ppm [1, 11]: 100%
Geometric Mean of movement values for stimulated ticks ([2]; 21-22 hours post infestation): 21,200
Geometric Mean of movement values for stimulated ticks ([2]; 1 hours post infestation): 51,000
Geometric Mean of movement values for stimulated ticks ([2]; 4 hours post infestation): 29,000
Geometric Mean of movement values for stimulated ticks ([2]; 18 hours post infestation): 17,400
Geometric Mean of movement values for stimulated ticks ([2]; 24 hours post infestation): 19,700
motility of ticks over time [2]: reduction in motility

Cc1ccc(/N=C/N(C)/C=N/c2ccc(C)cc2C)c(C)c1 [Amitraz, amitraz]
mortality at 3.13 ppm [1, 3]: 0%
mortality at 6.25 ppm [1, 3]: 0%
mortality at 12.5 ppm [1, 3]: 0%
mortality at 25 ppm [1, 3]: 0%
mortality at 3.13 ppm [1, 4]: 0%
mortality at 6.25 ppm [1, 4]: 0%
mortality at 12.5 ppm [1, 4]: 0%
mortality at 25 ppm [1, 4]: 0%
mortality at 3.13 ppm [1, 5]: 0%
mortality at 6.25 ppm [1, 5]: 0%
mortality at 12.5 ppm [1, 5]: 0%
mortality at 25 ppm [1, 5]: 0%
mortality at 3.13 ppm [1, 6]: 0%
mortality at 6.25 ppm [1, 6]: 0%
mortality at 12.5 ppm [1, 6]: 0%
mortality at 25 ppm [1, 6]: 0%
mortality at 3.13 ppm [1, 7]: 0%
mortality at 6.25 ppm [1, 7]: 0%
mortality at 12.5 ppm [1, 7]: 0%
mortality at 25 ppm [1, 7]: 0%
mortality at 3.13 ppm [1, 8]: 0%
mortality at 6.25 ppm [1, 8]: 0%
mortality at 12.5 ppm [1, 8]: 0%
mortality at 25 ppm [1, 8]: 0%
mortality at 3.13 ppm [1, 9]: 0%
mortality at 6.25 ppm [1, 9]: 0%
mortality at 12.5 ppm [1, 9]: 0%
mortality at 25 ppm [1, 9]: 0%
mortality at 3.13 ppm [1, 10]: 0%
mortality at 6.25 ppm [1, 10]: 0%
mortality at 12.5 ppm [1, 10]: 0%
mortality at 25 ppm [1, 10]: 0%
mortality at 3.13 ppm [1, 11]: 0%
mortality at 6.25 ppm [1, 11]: 0%
mortality at 12.5 ppm [1, 11]: 0%
mortality at 25 ppm [1, 11]: 0%
Geometric Mean of movement values for stimulated ticks ([2]; 21-22 hours post infestation): 30,300
Geometric Mean of movement values for stimulated ticks ([2]; 1 hours post infestation): 56,900
Geometric Mean of movement values for stimulated ticks ([2]; 4 hours post infestation): 44,300
Geometric Mean of movement values for stimulated ticks ([2]; 18 hours post infestation): 33,200
Geometric Mean of movement values for stimulated ticks ([2]; 24 hours post infestation): 34,300
motility of ticks over time [2]: increase in motility
